In test [1] the test system is AML-12 cells. Briefly: mPTP opening, CoCl2-calcein AM fluorescence-quenching assay, hypoxia/reoxygenation. Format: cell-based, mouse. Conditions: for prevention of mPTP opening (loss of calcein fluorescence): 1 μM, 4 h hypoxia, 1 h reoxygenation. How it is done:
We next evaluated the ability of compounds C105SR and C110SR to inhibit mPTP opening in cells. The hepatocyte cell line AML-12 was subjected to 4 h of hypoxia followed by 1 h of reoxygenation and mPTP opening was monitored using the CoCl2-calcein-acetoxymethyl ester (AM) fluorescence-quenching method.[19] Calcein-AM is a membrane permeable fluorophore which passively diffuses in all subcellular compartments including mitochondria. In the cell, the AM group of the fluorophore is cleaved by ubiquitous intracellular esterases, generating a hydrophilic product that is retained within the cell. The cells are then loaded with the divalent cobalt cation (Co^2+), which quenches calcein fluorescence in all subcellular compartments except the mitochondrial matrix, because the inner mitochondrial membrane is impermeable to cobalt. However, when mPTP is open, cobalt enters mitochondria and quenches mitochondrial calcein fluorescence. […]
(§1) Hypoxia/reoxygenation (H/R) in vitro model. AML-12 mouse hepatocyte line was obtained from American Type Culture Collection (ATCC) and maintained in DMEM/F12 culture medium at 37°C with 5% CO2. HepaRG human hepatocyte line was obtained from American Type Culture Collection (ATCC) and maintained in William’S E culture medium at 37°C with 5% CO2.When indicated, cells were incubated in phosphate buffered saline at 37°C in a hypoxic chamber filled with 94% N2, 1% O2, 5% CO2 for 4 h to mimic ischemic conditions. Then, cells were transferred to a CO2 incubator at 37°C in regular DMEM/F12 culture medium for 1 or 2 h under normoxic conditions (74% N2, 21% O2, 5% CO2). SMCypIs or vehicle (DMSO) were added during the hypoxia period, during the reoxygenation period, or during both. CsA and ALV were used as positive controls for hepatic protection against H/R injury.
Monitoring of mPTP opening. mPTP opening was monitored in AML-12 cells using the CoCl2-calcein AM fluorescence-quenching assay. Cells were loaded with 1 µM calcein-AM (green) for 20 min. Then, 1 mM CoCl2 was added and cells were incubated for another 10 min. Cells were washed and subjected to 4 h of hypoxia followed by 1 h of reoxygenation. Calcein fluorescence was measured using a spectrofluorimeter at excitation and emission wavelengths of 485 nm and 535 nm, respectively. Images were acquired using a standard inverted fluorescence microscope (Zeiss Axio, […]
media during the entire H/R period. Images shown are representative images of 12-18 images. […]
Optical density of purple formazan product was measured at 550 nm. […]

The subject of test [2] is isolated mouse liver mitochondria. Put plainly: Calcium retention capacity (CRC) assay in isolated liver mitochondria. Format: biochemical. The settings on record: for EC50: isolated mouse liver mitochondria; for maximal mitochondrial CRC, diastereoisomer vs racemic mixture: Fig. 2E; for maximal mitochondrial CRC: compound at 100 μM (Fig. 1C).
For test [3] the test system is unchanged. Put plainly: Ca2+-induced mitochondrial swelling assay. Format: biochemical. Conditions: energised isolated mouse liver mitochondria.
In another test the target is CypD (Homo sapiens, UniProt P30405). Put plainly: CypD PPIase activity, chymotrypsin-coupled assay. The class given is biochemical. The settings on record: Table 1.
The subject of test [4] is AML-12 cells. Put plainly: Propidium iodide staining, hypoxia/reoxygenation. Format: cell-based, mouse. Conditions: 1 μM; 4 h hypoxia, 1 h reoxygenation. How it is done: To assess whether the new SMCypIs reduced mPTP opening-induced cell death, propidium iodide fluorescence was measured in cells that had been co-loaded with calcein-AM. As expected, the loss of calcein fluorescence in cells subjected to hypoxia/reoxygenation was associated with enhanced propidium iodide fluorescence (Fig. 3A and 3C).
Calcium retention capacity (CRC) assay. Isolated liver mitochondria (1 mg/mL) energized with 5 mM glutamate/malate were incubated in a buffer allowing respiration of mitochondria (100 mM KCl, 50 mM sucrose, 10 mM HEPES, 5 mM KH2PO4, pH 7.4 at 30°C) supplemented with 1 µM calcium green 5N fluorescent probe. Mitochondria were pulsed with sequential additions of CaCl2 (20 µM) until mPTP opening along with rapid calcium release happened. The calcium concentration in the extra-mitochondrial medium was monitored with a Jasco FP-6300 spectrofluorimeter (Jasco, Bouguenais, France) at 506 nm excitation and 532 nm emission wavelengths.
Mitochondrial swelling assay. Mitochondrial swelling was assessed by measuring changes in absorbance at 540 nm using a Jasco V-530 spectrophotometer (Bouguenais, France) equipped with magnetic stirring and thermostatic control (30°C). […]
Monitoring of mPTP opening. mPTP opening was monitored in AML-12 cells using the CoCl2-calcein AM fluorescence-quenching assay. […] Calcein fluorescence was measured using a spectrofluorimeter at excitation and emission wavelengths of 485 nm and 535 nm, respectively. Images were acquired using a standard inverted fluorescence microscope (Zeiss Axio, […]
Propidium iodide staining. […] Fluorescence was measured using an Infinite 200 Pro fluorescent plate reader (Tecan, Mannedorf, Switzerland) at excitation and emission wavelengths of 533 nm and 617 nm, respectively. Images were acquired using a standard inverted fluorescence microscope (Zeiss Axio, Oberkochen, Germany). […]
Cell viability assays. Lactate dehydrogenase (LDH) release in culture medium was assessed using the commercially non-radioactive CytoTox-96 kit (Promega, Madison, Wisconsin) following the manufacturer’s instructions. […]

For test [5], the system named is AML-12 cells. Briefly: LDH release, hypoxia/reoxygenation. Format: cell-based, mouse. Conditions: 0.5 μM. How it is done: As expected, cells subjected to hypoxia/reoxygenation were characterised by greater LDH release and reduced cell viability as compared to untreated controls (Fig. 4A and 4B). […]
as §1, with “injury. […]” for “injury.”
Cell viability assays. Lactate dehydrogenase (LDH) release in culture medium was assessed using the commercially non-radioactive CytoTox-96 kit (Promega, Madison, Wisconsin) following the manufacturer’s instructions. Briefly, cell culture media were collected and the LDH activity was determined by measuring absorbance at 491 nm with a spectrometer (Multiskan skyHigh). For 3-(4,5-dimethylthiazol-2-yl)-2,5-diphenyltetrazolium bromide (MTT) assay, cells were incubated with a solution of MTT (0.5 mg/mL) for 2 h at 37°C. The medium was then removed and 50 µL DMSO was added to each well. Optical density of purple formazan product was measured at 550 nm. Cell viability was expressed as a percentage of the untreated control.

The text below walks through data of paper PMC10582583, “The novel cyclophilin inhibitor C105SR reduces hepatic ischaemia–reperfusion injury via mitoprotection” (JHEP Reports, 2023).

Chain of CypD (P30405 30-207): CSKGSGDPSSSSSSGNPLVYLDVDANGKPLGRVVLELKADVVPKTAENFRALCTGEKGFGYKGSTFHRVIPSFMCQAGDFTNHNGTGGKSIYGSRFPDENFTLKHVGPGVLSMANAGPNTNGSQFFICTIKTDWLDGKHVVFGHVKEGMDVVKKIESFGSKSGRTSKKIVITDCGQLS

What is called EC50 is the concentration giving half of the maximal effect. As a reminder, the IC50 is the concentration that gives 50% inhibition. Higher therefore signals a need for much substance. Consider `C/C=C/C[C@@H](C)[C@@H](O)[C@H]1C(=O)N[C@@H](CC)C(=O)N(C)[C@H](C)C(=O)N(CC)[C@@H](C(C)C)C(=O)N[C@@H](C(C)C)C(=O)N(C)[C@@H](CC(C)C)C(=O)N[C@@H](C)C(=O)N[C@H](C)C(=O)N(C)[C@@H](CC(C)C)C(=O)N(C)[C@@H](CC(C)C)C(=O)N(C)[C@@H](C(C)C)C(=O)N1C` [ALV, alisporivir, reference compound], for which the “prevention of mPTP opening (loss of calcein fluorescence)” value in the test on AML-12 cells [1] is “substantially prevented”. In test [2] (compound at 1 μM, basal 160 ± 8), the “amount of Ca2+ required to open mPTP (CRC)” value is recorded as 373 ± 59 nmol Ca2+/mg of mitochondrial. Also, the EC50 in test [2] turned out to be 80 ± 20 nM. The IC50 in test [3] worked out at 50 ± 20 nM; at CypD it was 30 ± 5 nM. The propidium iodide fluorescence entry with AML-12 cells [4] was “low propidium iodide fluorescence”.

Regarding `CSc1ccccc1C1CCCN1C(=O)C(NC(=O)NCc1ccc(N)cc1)c1ccccc1` (stereo not shown) [Compound C31], the “inhibition of mPTP opening” value in the test with AML-12 cells [1] (0.5 μM) is given as “not effective”. Moreover, the EC50 in test [2] was 9090 ± 210 nM. Besides, the figures for the IC50 (in test [3]; on CypD) were 1300 ± 50 nM and 200 ± 100 nM, respectively. The “inhibition of cell death” value with AML-12 cells [5] is on record as “not effective”.

Turning to `COc1ccc(Br)cc1C(NC(=O)NCc1ccc2c(c1)CCCN2)C(=O)N1CCCC1c1cccc2ccsc12` (stereo not shown) [Compound C105, 1-(2-(2-(benzo[b]thiophen-7-yl)pyrrolidin-1-yl)-1-(5-bromo-2-methoxyphenyl)-2-oxoethyl)-3-((1,2,3,4-tetrahydroquinolin-6-yl)methyl)urea], in the test with AML-12 cells [1], the “prevention of mPTP opening (loss of calcein fluorescence)” value is recorded as “not”. In addition, in test [2], the “maximal mitochondrial CRC, diastereoisomer vs racemic mixture” value is given as 407 ± 13 nmol Ca2+/mg of mitochondrial and the EC50 stood at 2370 ± 110 nM. In addition, the “maximal mitochondrial CRC” value in test [2] (basal 160 ± 8) is given as 407 ± 13 nmol Ca2+/mg of mitochondrial. In test [3], this compound returned an IC50 of 690 ± 50 nM.

As for `COc1ccc(Br)cc1C(NC(=O)NCc1ccc(N)cc1)C(=O)N1CCCC1c1cccc2ccsc12` (stereo not shown) [Compound C110, 1-(4-aminobenzyl)-3-(2-(2-(benzo[b]thiophen-7-yl)pyrrolidin-1-yl)-1-(5-bromo-2-methoxyphenyl)-2-oxoethyl)urea], the “prevention of mPTP opening (loss of calcein fluorescence)” value with AML-12 cells [1] is given as “not”. In addition, in test [2], the “maximal mitochondrial CRC, diastereoisomer vs racemic mixture” value is 400 ± 27 nmol Ca2+/mg of mitochondrial and the EC50 was found to be 2830 ± 90 nM. The “maximal mitochondrial CRC” value in test [2] (basal 160 ± 8) is 400 ± 27 nmol Ca2+/mg of mitochondrial. In test [3], this compound yielded a 50% inhibitory concentration (IC50) of 370 ± 6 nM. For the same compound, half-maximal inhibition against CypD (IC50) required 100 ± 20 nM.

Take `CSc1ccccc1C1CCCN1C(=O)C(NC(=O)NCc1cccc2c1CCN2)c1ccccc1` (stereo not shown) [Compound C144, 1-(indolin-4-ylmethyl)-3-(2-(2-(2-(methylthio)phenyl)pyrrolidin-1-yl)-2-oxo-1-phenylethyl)urea]: the “maximal mitochondrial CRC” value in test [2] (basal 160 ± 8) was 422 ± 44 nmol Ca2+/mg of mitochondrial. Besides, the EC50 in test [2] was 11760 ± 10 nM. Further, the IC50 was determined as 11570 ± 10 nM in test [3] and 310 ± 160 nM at CypD.

Regarding `CSc1ccccc1C1CCCN1C(=O)C(NC(=O)NCc1cccc2[nH]ncc12)c1ccccc1` (stereo not shown) [Compound C178, 1-((1H-indazol-4-yl)methyl)-3-(2-(2-(2-(methylthio)phenyl)pyrrolidin-1-yl)-2-oxo-1-phenylethyl)urea], half-maximal inhibition at CypD (IC50) required 400 ± 190 nM.

With `CSc1ccccc1C1CCCN1C(=O)C(NC(=O)NN1Cc2ccc(N)cc2C1)c1ccccc1` (stereo not shown) [Compound C185, 1-(5-aminoisoindolin-2-yl)-3-(2-(2-(2-(methylthio)phenyl)pyrrolidin-1-yl)-2-oxo-1-phenylethyl)urea], the IC50 against CypD was found to be 590 ± 190 nM.
